Patent publication US12285454B2, “Anti-aging chinese herb extract, extraction method and use thereof” (HEALTH LIFE BIOSCIENCES INC, priority 2019, dated 2025)

Molecular target: T1, telomerase (Homo sapiens, UniProt O14746)
T1 construct: endogenous in cells; host or cells: CCL137 normal human fibroblast cell line (ATCC)
Experiment: Telomerase activity by PCR-ELISA (TRAP) in normal human fibroblasts
Type: cell-based
Settings: CCL137 normal human fibroblasts, X ± S, N = 9
From the text: • Telomerase Activity Assay Kit (Roche, Switzerland); • CCL137 human fibroblast cell lines (American Type Culture Collection (ATCC)); • Ginseng-Astragalus membranaceus extract: the extract prepared in Example 1 of the present invention; • Astragalus membranaceus extract: the Astragalus membranaceus extract prepared in Example 3 of the present invention; • Ginseng extract: the ginseng extract prepared in Example 2 of the present invention. Method The effects of different extracts on the telomerase activity were detected by PCR-ELISA. Principle: This method is based on establishment of Telomeric Repeat Amplification Protocol (TRAP), which is used for PCR Amplification of telomerase mediated derivatives and combined with the subsequent ELISA method. […]
For the sample of each group, to the EP tube, 20 μl of the denaturing reagent were added and marked, and 5 μl of the obtained product after the PCR amplification was added. […] The absorbance value is then detected at 450 nm using the microplate reader and A690 nm was taken as a reference, and the value of the negative control will be subtracted from the absorption value for the sample of each group. […]
The test results were analyzed and processed by a SPSS18.0 statistical software. […]
The test methods and procedures for detection of the telomerase activity were the same as the Test Example 1, and the measured results were shown in Table 5.

T1 sequence (O14746 whole entry): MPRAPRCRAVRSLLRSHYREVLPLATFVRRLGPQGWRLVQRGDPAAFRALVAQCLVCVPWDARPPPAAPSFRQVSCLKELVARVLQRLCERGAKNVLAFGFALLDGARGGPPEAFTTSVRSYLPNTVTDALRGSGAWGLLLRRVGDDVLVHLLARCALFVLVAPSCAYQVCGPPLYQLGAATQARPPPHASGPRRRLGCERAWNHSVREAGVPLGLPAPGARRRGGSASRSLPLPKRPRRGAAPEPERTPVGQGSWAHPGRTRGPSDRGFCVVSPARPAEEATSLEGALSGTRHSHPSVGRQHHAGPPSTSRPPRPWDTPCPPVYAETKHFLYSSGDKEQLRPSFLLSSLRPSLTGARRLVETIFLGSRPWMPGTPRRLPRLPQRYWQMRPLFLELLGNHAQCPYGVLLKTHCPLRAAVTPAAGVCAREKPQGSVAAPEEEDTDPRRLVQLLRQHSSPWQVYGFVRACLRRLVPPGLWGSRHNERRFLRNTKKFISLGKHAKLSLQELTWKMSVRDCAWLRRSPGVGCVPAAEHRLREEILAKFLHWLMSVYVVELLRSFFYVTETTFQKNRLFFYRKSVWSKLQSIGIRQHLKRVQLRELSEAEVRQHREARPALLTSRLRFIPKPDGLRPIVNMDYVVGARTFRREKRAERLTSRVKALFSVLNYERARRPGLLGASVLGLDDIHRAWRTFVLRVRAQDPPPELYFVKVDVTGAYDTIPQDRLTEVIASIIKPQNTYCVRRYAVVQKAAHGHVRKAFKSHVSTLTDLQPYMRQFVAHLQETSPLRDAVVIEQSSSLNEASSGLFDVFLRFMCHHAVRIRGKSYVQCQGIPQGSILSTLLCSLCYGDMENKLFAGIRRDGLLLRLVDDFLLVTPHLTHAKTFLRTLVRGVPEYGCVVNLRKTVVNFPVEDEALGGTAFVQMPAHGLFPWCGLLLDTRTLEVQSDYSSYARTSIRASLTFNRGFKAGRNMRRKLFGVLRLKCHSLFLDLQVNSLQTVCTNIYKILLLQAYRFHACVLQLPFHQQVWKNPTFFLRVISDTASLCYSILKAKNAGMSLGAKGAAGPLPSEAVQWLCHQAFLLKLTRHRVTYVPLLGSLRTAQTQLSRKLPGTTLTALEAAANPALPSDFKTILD

Astragaloside
Telomerase activity (ΔA) (Table 5, high concentration group, extract concentration 100 ug/mL): 0.436 | Telomerase activity (ΔA) (Table 5, medium concentration group, extract concentration 50 ug/mL): 0.453
